Test results published in patent US20070015232A1, “Mitotic index assay” (DiscoveRx, Inc., priority 2005, published 2007).

Assays:
[1] = system: Clone #69 CHO-K1 cells expressing EA-NLS/NRS and GR-PL; experiment: EFC assay in stable clone #69 (CHO-K1, EA-NLS/NRS and GR-PL) with or without RU486 pre-incubation; assay type: cell-based; settings: overnight, vehicle pre-incubation
Protocol: In the next experiment, a stable clone (clone #69) expressing both EA-NLS/NRS and GR-PL was isolated in a CHO-K1 parental background. […] 20,000 cells/well were plated in a 96 well white coming multi-well plate and allowed to adhere overnight. The next day, the cells were washed two times with serum free F12 media and 100 μL of serum free F12 media was added to the cells. The cells were then incubated in either vehicle (ethanol-1% final concentration) or 10 μM RU486 for one hour. To the cells, three different concentrations of dexamethasone (300, 100, 30 μM) (an agonist of GR), RU486 (30, 10, 3.33 μM), colchicine (1, 0.3, 0.1 μ/mL) or nocodazole (10, 3.33, 1.11 μg/mL) were added and the incubation went overnight at 37° C. with 5% CO2. The next day, the media was aspirated off and 100 μL of Tropix/ABI Gal screen cell lysis/substrate reagent was added to the cells. The plate was read on the Victor II reader at 30, 60 and 120 minutes.

[2] = system: CHO-K1+EA-NLS/NRS+GR-PL cells; experiment: EFC mitotic index assay, CHO-K1+EA-NLS/NRS+GR-PL cells, antibiotic selected pool (DX M19/GR pool); assay type: cell-based; settings: for Avg luminescence readout / R1 luminescence readout / R3 luminescence readout / Ratio (Avg vs 0 conc): 24 hours, 30 min read
Protocol: (§1) In all experiments described, 20,000 cells/well were plated in a 96 well Corning clear bottom white plate in a total volume of 100 μL. The cells were treated for 24 hours with 5 μL of either the appropriate vehicle control or varying concentrations of the six compounds listed above. The next day, 100 μL of Tropix/ABI Gal screen cell lysis buffer/substrate mixture (24:1 ratio of component) was added to the cells/media and the plate was read on the Victor II luminescent plate reader at 30, 60 and 120 minutes after the lysis/substrate addition.
(§2) The initial test of the cell cycle arresting compounds was performed on a double stable cell line having both of the constructs expressing the EA-NLS/NRS and GR-PL. (PL is β-galactosidase enzyme donor fragment and EA is the enzyme acceptor fragment available from DiscoveRx, Fremont, CA.). The parental line, C2C12 is derived from mouse muscle cells. In the experiments in which EA-NLS/NRS and GR-PL are expressed in the C2C12 parental cell line, the constructs were generated by subcloning the human GR sequence into a MFG-based retroviral vector that had been molecularly altered in a lab at Stanford. An MFG vector is described in U.S. Pat. No. 6,544,771. The EA-NLS/NRS fragment was subcloned into a wzl-based retroviral vector again molecularly altered in a lab at Stanford. In the experiments performed using a CHO-K1 parental cell line background the EA-NLS/NRS was subcloned into the Kpn I and Xba I sites of pcDNA3.1 Hygro vector from Invitrogen (catalog #V870-20). The plasmid was introduced into the cells via FuGene6 (Roche) transfection reagent. Cells were selected in the presence of 250 μg/mL of Hygromycin and single cell clones isolated that expressed the EA-NLS/NRS. The human GR gene was cloned by PCR and subcloned into the Xho I and Bam HI sites of the DiscoveRx vector-pCMV-myc-PL (C3). The plasmid was introduced into the selected EA-NLS/NRS expressing clone isolated above by FuGene 6 transfection. Another round of screening in the presence of 300-500 μg/mL of G418 was used to select GR-PL transfected clones. Clonal selection was performed to finally identify the clone that was used in these studies. In the studies using the CHO-K1+cyto-EA and cJUN-PL, the same Invitrogen pcDNA3.1 Hygro vector was used to express EA. In this case, the EA fragment was subcloned into the Kpn I/Not I sites of pcDNA3.1 Hygro. The plasmid DNA was introduced as described above using FuGene6 reagent. Cells were selected in the presence of 250 μg/mL of hygromycin and clonal selection was performed. The c-Jun gene was generated by PCR using an existing template copy of the gene and then subcloned into the Xho I/Bam HI sites of pCMV-PL-myc (C3).
In the next experiment, an antibiotic selected pool population of CHO-K1 cells that express EA-NLS/NRS and GR-PL were tested with the same six set of cell cycle blocking compounds. […] FIGS. 2a and 2b show the immunofluorescence localization of EA and GR-PL in that the blue DAPI nuclear staining can be seen to be concentrated in the nucleus, while the green fluorescein stain on the antibody (from Abcam PLC) to the glucocorticoid receptor is seen in the cytoplasm. […] Again, six tables are presented one for each of the six drugs tested.
This only occurs with compounds that block the cells in mitosis, allowing EA and ProLabel to complement.

[3] = system: C2C12+EA-NLS/NRS+GR-PL cells; experiment: EFC mitotic index assay, C2C12+EA-NLS/NRS+GR-PL cells (Stanford GR cells); assay type: cell-based, mouse; settings: 24 hours, 30 min read
Protocol: as §1, §2

[4] = system: CHO-K1+cyto-EA cells transfected with cJUN-PL; experiment: EFC mitotic index assay, CHO-K1+cyto-EA cells transiently transfected with cJUN-PL; assay type: cell-based; settings: for Avg luminescence readout / R1 luminescence readout / R3 luminescence readout / Ratio (Avg vs 0 conc): overnight
Protocol: as §2
To further test the concept of sequestering of one β-galactosidase enzyme fragment in the nucleus (in this case PL) while localizing the other component in the cytoplasm (in this case EA) the following experiment was carried out. […] The cyto-EA cells were transiently transfected with cJUN-PL plasmid DNA. Two days after the transfection, the cells were re-plated into a 96 well Corning white clear bottom multiwell plate at 20,000 cells/well. The cells were allowed to adhere overnight and the next day were treated with titrating concentrations of the six different cell cycle blocking compounds. The incubation was carried out overnight. The next day the media was removed from the cells and 100 μL of Tropix/ABI Gal screen cell lysis/substrate reagent was added to the cells.

[5] = High conc (nocodazole 10 μg/mL, colchicine 1 μ/mL, dexamethasone 300 μM, RU486 30 μM)
[6] = Low conc (nocodazole 1.11 μg/mL, colchicine 0.1 μ/mL, dexamethasone 30 μM, RU486 3.33 μM)
[7] = Med conc (nocodazole 3.33 μg/mL, colchicine 0.3 μ/mL, dexamethasone 100 μM, RU486 10 μM)

## CC#C[C@]1(O)CC[C@H]2[C@@H]3CCC4=CC(=O)CCC4=C3[C@@H](c3ccc(N(C)C)cc3)C[C@@]21C [RU486]
[1]; [5]
  Avg luminescence readout: 2882
  R1 luminescence readout: 3199
  R3 luminescence readout: 2657
  Ratio (Avg vs 0 conc): 1
[1]; [6]
  Avg luminescence readout: 2416
  R1 luminescence readout: 2692
  R3 luminescence readout: 2298
  Ratio (Avg vs 0 conc): 1
[1]; [7]
  Avg luminescence readout: 2402
  R1 luminescence readout: 2578
  R3 luminescence readout: 2249
  Ratio (Avg vs 0 conc): 1

## C[C@@H]1C[C@H]2[C@@H]3CCC4=CC(=O)C=C[C@]4(C)[C@@]3(F)[C@@H](O)C[C@]2(C)[C@@]1(O)C(=O)CO [Dexamethasone, dexamethasone]
[1]; [5]
  Avg luminescence readout: 2559
  R1 luminescence readout: 3173
  R3 luminescence readout: 1934
  Ratio (Avg vs 0 conc): 7
[1]; [6]
  Avg luminescence readout: 1258
  R1 luminescence readout: 1528
  R3 luminescence readout: 1016
  Ratio (Avg vs 0 conc): 3
[1]; [7]
  Avg luminescence readout: 1697
  R1 luminescence readout: 2033
  R3 luminescence readout: 1290
  Ratio (Avg vs 0 conc): 4

## NC(=O)NO [Hydroxyurea]
[2]; 1.0 μg/mL
  Avg luminescence readout: 4562
  R1 luminescence readout: 4403
  R3 luminescence readout: 4740
  Ratio (Avg vs 0 conc): 1
[2]; 3.3 μg/mL
  Avg luminescence readout: 4389
  R1 luminescence readout: 4423
  R3 luminescence readout: 4304
  Ratio (Avg vs 0 conc): 1
[2]; 10.0 μg/mL
  Avg luminescence readout: 3959
  R1 luminescence readout: 3865
  R3 luminescence readout: 3897
  Ratio (Avg vs 0 conc): 1
[2]; 30.0 μg/mL
  Avg luminescence readout: 3793
  R1 luminescence readout: 3825
  R3 luminescence readout: 3785
  Ratio (Avg vs 0 conc): 1
[2]; overnight treatment
  increase in EFC activity (in words): did not cause an increase in EFC activity
[3]; 1.0 μg/mL
  Avg luminescence readout: 11689
  R1 luminescence readout: 12080
  R3 luminescence readout: 11424
  Ratio (Avg vs 0 conc): 1
[3]; 3.3 μg/mL
  Avg luminescence readout: 11522
  R1 luminescence readout: 12588
  R3 luminescence readout: 11171
  Ratio (Avg vs 0 conc): 1
[3]; 10.0 μg/mL
  Avg luminescence readout: 9211
  R1 luminescence readout: 8813
  R3 luminescence readout: 9419
  Ratio (Avg vs 0 conc): 1
[3]; 30.0 μg/mL
  Avg luminescence readout: 7221
  R1 luminescence readout: 7272
  R3 luminescence readout: 7165
  Ratio (Avg vs 0 conc): 1
[4]; 3.0 μg/mL
  Avg luminescence readout: 7420
  R1 luminescence readout: 7319
  R3 luminescence readout: 6690
  Ratio (Avg vs 0 conc): 1.2
[4]; 10.0 μg/mL
  Avg luminescence readout: 7634
  R1 luminescence readout: 8237
  R3 luminescence readout: 6699
  Ratio (Avg vs 0 conc): 1.3
[4]; 30.0 μg/mL
  Avg luminescence readout: 6984
  R1 luminescence readout: 7217
  R3 luminescence readout: 6624
  Ratio (Avg vs 0 conc): 1.2
[4]; 100.0 μg/mL
  Avg luminescence readout: 7742
  R1 luminescence readout: 7955
  R3 luminescence readout: 7483
  Ratio (Avg vs 0 conc): 1.3
[4]; overnight incubation
  increase in EFC activity (in words): negligible increase in EFC activity
